According to patent US8293979B2, “Weed controller metabolism proteins, genes, thereof and use of the same” (Sumitomo Chemical Company, Limited, priority 2001, dated 2012):

Columns and labels:
Ivyleaf morningglory = assay: Herbicidal activity test, soil surface treatment; assay type: in vivo, Ipomoea hederacea; set-up: key: 0: situations in which the condition of sprouting or vegetation at the time of examination of the plant utilized for the test was compared with and showed totally or substantially no difference with that of the untreated application; 10: situations in which the plant completely withered or the sprouting or vegetation was completely suppressed; details: 500 g/ha, sprayed onto the surface of the soil after seeding, investigated after 19 days in a greenhouse
Procedure: Soil was packed into a round plastic pot having a diameter of 10 cm and depth of 10 cm. Barnyardgrass, Blackgrass, Ivyleaf morningglory were seeded. Five (5) parts of the test compound, 6 parts of sorpol3005X (Toho Chemical Company) and 89 parts of xylene were well mixed to produce an emulsion. A certain amount thereof was diluted with water containing 0.1% (v/v) of a sticking agent at a proportion of 1000 L for 1 hectare and was spread uniformly with a spray-gun onto the surface of the soil. After cultivating the plants for 19 days in a greenhouse, the herbicidal activity was investigated.
In the above Tables 3 and 4, the strength of the herbicidal activity is shown stepwise as 0, 1, 2, 3, 4, 5, 6, 7, 8, 9, and 10.

[1] = system: present invention protein (A12); assay: Detection of the ability to convert compound (II) to compound (III), E. coli pKSN1618F extract; assay type: in vitro ADME, Streptomyces tsusimaensis IFO 13782; details: 3 ppm of compound (II) labeled with 14C, components A, B, 10 minutes at 30° C.
Procedure: (§1) Reaction solutions of 30 μl were prepared and maintained for 10 minutes at 30° C. The reaction solutions consisted of a 0.1M potassium phosphate buffer (pH7.0) containing 3 ppm of compound (II) labeled with ^14C, 2 mM of β-NADPH (hereinafter, referred to as “component A”) (Oriental Yeast Company), 2 mg/ml of a ferredoxin derived from spinach (hereinafter referred to as “component B”) (Sigma Company), 0.1 U/ml of ferredoxin reductase (hereinafter, referred to as “component C”) (Sigma Company) and 23 μl of the supernatant fraction recovered in Example 32(2). Similarly to Example 4(3), the reaction solutions after the maintenance were extracted with ethyl acetate and the extracted layers were TLC analyzed. […] A spot corresponding to compound (III) was detected from the reaction solution containing E. coli pKSN849AF extract. In contrast, such a spot was not detected from the reaction solution containing E. coli pKSN2 extract.
(§2) Reaction solutions of 30 μl were prepared and maintained for 10 minutes at 30° C. […] The reaction solutions after the maintenance were extracted with ethyl acetate and the extracted layers were TLC analyzed. […] A spot corresponding to compound (III) was detected from the reaction solution containing E. coli pKSN1618F extract. In contrast, such a spot was not detected from the reaction solution containing E. coli pKSN2 extract.

[2] = system: present invention protein (A16); assay: Detection of the ability to convert compound (II) to compound (III), E. coli pKSN452F extract; assay type: in vitro ADME, Streptomyces ornatus IFO 13069t; details: 3 ppm of compound (II) labeled with 14C, components A, B, 10 minutes at 30° C.
Procedure: as §1
as §2, with “Similarly to Example 32(3), reaction” for “Reaction”, “pKSN452F” for “pKSN1618F”

[3] = system: present invention protein (A16); assay: Metabolism of compounds by the present invention protein (A16), reaction solution, HPLC; assay type: in vitro ADME, Streptomyces ornatus IFO 13069t; details: 12.5 ppm of compound, components A, B, C, 20 μl supernatant fraction of Example 49(2), 30° C. for 10 minutes
Procedure: There was prepared 100 μl of a reaction solution of 50 mM potassium phosphate buffer (pH7.0) containing 12.5 ppm of compound (XII), 3 mM of β-NADPH (hereinafter, referred to as “component A”) (Oriental Yeast Company), 1 mg/ml of a ferredoxin derived from spinach (hereinafter referred to as “component B”) (Sigma Company), 0.15 U/ml of ferredoxin reductase (hereinafter, referred to as “component C”) (Sigma Company) and 20 μl of the supernatant fraction recovered in Example 49(2). The reaction solution was maintained at 30° C. for 10 minutes. […] Forty microliters (40 μl) of the liquid filtrate (hereinafter, the liquid filtrate derived from the reaction solution containing component A, component B, component C and 20 μl of supernatant fraction recovered in Example 49(2) is referred to as “(XII) metabolism solution (A16);” further, the liquid filtrate derived from the reaction solution containing no component A, no component B, no component C and no supernatant fraction recovered in Example 49(2) is referred to as “(XII) control solution (A16)”) were analyzed on a HPLC under the above analysis condition 1. Compared to the concentration of compound (XII) detected from (XII) control solution (A16), the concentration of compound (XII) detected from (XII) metabolism solution (A16) was lower. […]

C[C@@H](Oc1cc(-n2c(=O)cc(C(F)(F)F)n(C)c2=O)c(F)cc1Cl)C(=O)O [compound (II)]
Herbicidal Activity Ivyleaf Morningglory (Ivyleaf morningglory): 10 | spot corresponding to compound (III) labeled with 14C (TLC) [1]: detected | spot corresponding to compound (III) labeled with 14C (TLC) [2]: detected

Cn1c(C(F)(F)F)cc(=O)n(-c2cc(Oc3cccnc3OCC(=O)O)c(Cl)cc2F)c1=O [compound (XII)]
concentration of the compound detected from metabolism solution (A16) compared to control solution (A16) [3]: lower
